Test results taken from patent US12459899B2, “Isoquinolinone derivatives, method for preparing the same, and pharmaceutical composition for preventing or treating poly(ADP-ribose) polymerase-1-related diseases, comprising the same as active ingredient” (DIGMBIO. INC., priority 2019, dated 2025).
Counter-ions that a name gives are not always drawn.

Molecular target: PARP-1 (poly[ADP-ribose] polymerase 1) enzyme (Homo sapiens (Human), UniProt P09874)
Experiment: PARP-1 (poly[ADP-ribose] polymerase 1) enzyme inhibitory ability, Trevigen assay kit
Format: biochemical
Conditions: 1 nM compound; read-out: PAR P-1 Inhibitory ability at 1 nM
Method in brief: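 Human PARP-1 activity was measured with a Trevigen assay kit in histone-coated 96-well plates rehydrated with 50 μL of 1×PARP buffer for 30 minutes. Enzyme (0.5 unit/well) and compound were preincubated 10 minutes at room temperature, then 25 μL of 1×PARP cocktail with biotinylated NAD and activated DNA was added for 1 hour.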

PARP-1 (poly[ADP-ribose] polymerase 1) enzyme, sequence (P09874 whole entry): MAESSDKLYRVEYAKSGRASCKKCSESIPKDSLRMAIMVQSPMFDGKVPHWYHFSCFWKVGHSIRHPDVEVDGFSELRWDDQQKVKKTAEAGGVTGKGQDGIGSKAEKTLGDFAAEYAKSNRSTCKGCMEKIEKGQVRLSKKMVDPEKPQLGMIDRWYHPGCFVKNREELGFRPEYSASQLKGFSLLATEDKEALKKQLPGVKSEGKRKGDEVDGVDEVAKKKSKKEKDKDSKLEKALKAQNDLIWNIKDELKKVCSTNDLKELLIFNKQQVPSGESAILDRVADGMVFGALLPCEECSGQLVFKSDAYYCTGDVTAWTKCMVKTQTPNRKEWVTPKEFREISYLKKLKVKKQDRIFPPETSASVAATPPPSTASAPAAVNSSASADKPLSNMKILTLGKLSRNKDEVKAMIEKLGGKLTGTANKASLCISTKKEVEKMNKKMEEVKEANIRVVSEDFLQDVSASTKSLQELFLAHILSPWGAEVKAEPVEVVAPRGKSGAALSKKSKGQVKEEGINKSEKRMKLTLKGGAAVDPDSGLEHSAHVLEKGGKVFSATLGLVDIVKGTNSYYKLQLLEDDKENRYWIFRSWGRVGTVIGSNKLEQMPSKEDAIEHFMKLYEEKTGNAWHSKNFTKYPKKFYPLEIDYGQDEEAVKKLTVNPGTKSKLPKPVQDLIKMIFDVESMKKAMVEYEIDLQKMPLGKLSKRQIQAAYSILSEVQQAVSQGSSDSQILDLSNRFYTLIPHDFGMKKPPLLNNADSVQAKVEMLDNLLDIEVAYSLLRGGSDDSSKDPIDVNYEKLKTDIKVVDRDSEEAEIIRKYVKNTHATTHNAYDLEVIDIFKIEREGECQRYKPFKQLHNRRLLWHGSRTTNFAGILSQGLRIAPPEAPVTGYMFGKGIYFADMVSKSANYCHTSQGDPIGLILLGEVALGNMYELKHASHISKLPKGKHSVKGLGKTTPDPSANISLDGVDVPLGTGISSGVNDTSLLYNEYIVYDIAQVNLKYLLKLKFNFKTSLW

| SMILES | inhibition at 0.001 µM [%] |
| --- | --- |
| O=C(CCc1cc2ccc(F)cc2c(=O)[nH]1)N1CCN(C(=O)C2CCCC2)CC1 [Example 176, 3-(3-(4-(cyclopentanecarbonyl)piperazin-1-yl)-3-oxopropyl)-7-fluoroisoquinolin-1(2H)-one] | < 50 |
| O=C(CCc1cc2cccc(F)c2c(=O)[nH]1)N1CCN(C(=O)C2CCC2)CC1 [Example 178, 3-(3-(4-(cyclobutanecarbonyl)piperazin-1-yl)-3-oxopropyl)-8-fluoroisoquinolin-1(2H)-one] | < 50 |
| Cc1ccc(F)c2c(=O)[nH]c(CCC(=O)N3CCN(C(=O)C4CCC4)CC3)cc12 [Example 179, 3-(3-(4-(cyclobutanecarbonyl)piperazin-1-yl)-3-oxopropyl)-8-fluoro-5-methylisoquinolin-1(2H)-one] | < 50 |
| Cc1cc(F)cc2c(=O)[nH]c(CCC(=O)N3CCN(C(=O)C4CCC4)CC3)cc12 [Example 181, 3-(3-(4-(cyclobutanecarbonyl)piperazin-1-yl)-3-oxopropyl)-7-fluoro-5-methylisoquinolin-1(2H)-one] | < 50 |
| O=C(CCc1cc2cccc(F)c2c(=O)[nH]1)N1CCN(C(=O)C2CC2)CC1 [Example 182, 3-(3-(4-(cyclopropanecarbonyl)piperazin-1-yl)-3-oxopropyl)-8-fluoroisoquinolin-1(2H)-one] | < 50 |
| Cc1ccc(F)c2c(=O)[nH]c(CCC(=O)N3CCN(C(=O)C4CC4)CC3)cc12 [Example 183, 3-(3-(4-(cyclopropanecarbonyl)piperazin-1-yl)-3-oxopropyl)-8-fluoro-5-methylisoquinolin-1(2H)-one] | < 50 |
| Cc1cc(F)cc2c(=O)[nH]c(CCC(=O)N3CCN(C(=O)C4CC4)CC3)cc12 [Example 185, 3-(3-(4-(cyclopropanecarbonyl)piperazin-1-yl)-3-oxopropyl)-7-fluoro-5-methylisoquinolin-1(2H)-one] | < 50 |
| CC(C)C(=O)N1CCN(C(=O)CCc2cc3ccc(F)cc3c(=O)[nH]2)CC1 [Example 188, 7-fluoro-3-(3-(4-isobutyrylpiperazin-1-yl)-3-oxopropyl)isoquinolin-1(2H)-one] | < 50 |
| Cc1cc(F)cc2c(=O)[nH]c(CCC(=O)N3CCN(C(=O)C(C)C)CC3)cc12 [Example 189, 7-fluoro-3-(3-(4-isobutyrylpiperazin-1-yl)-3-oxopropyl)-5-methylisoquinolin-1(2H)-one] | < 50 |
| Cc1ccc(F)c2c(=O)[nH]c(CCCN3C4CCC3CN(c3ccc(C#N)cc3)C4)cc12 [Example 197] | < 50 |
| Cc1ccc(F)c2c(=O)[nH]c(CCCN3C4CCC3CN(c3ccc(F)cc3)C4)cc12 [Example 198, 8-fluoro-3-(3-(3-(4-fluorophenyl)-3,8-diazabicyclo[3.2.1]octan-8-yl)propyl)-5-methylisoquinolin-1(2H)-one] | < 50 |
| Cc1ccc(F)c2c(=O)[nH]c(CCCN3C4CCC3CN(c3ccc(C#N)cn3)C4)cc12 [Example 199] | < 50 |
| Cc1ccc(F)c2c(=O)[nH]c(CCCN3C4CCC3CN(c3ccc(C#N)nc3)C4)cc12 [Example 200, 5-(8-(3-(8-fluoro-5-methyl-1-oxo-1,2-dihydroisoquinolin-3-yl)propyl)-3,8-diazabicyclo[3.2.1]octan-3-yl)picolinonitrile] | 50 to 80 |
| Cc1ccc(F)c2c(=O)[nH]c(CCCN3C4CCC3CN(c3ccc(Cl)cc3)C4)cc12 [Example 201, 3-(3-(3-(4-chlorophenyl)-3,8-diazabicyclo[3.2.1]octan-8-yl)propyl)-8-fluoro-5-methylisoquinolin-1(2H)-one] | < 50 |
| Cc1ccc(F)c2c(=O)[nH]c(CCCN3C4CCC3CN(c3ccc(F)nc3)C4)cc12 [Example 202, 8-fluoro-3-(3-(3-(6-fluoropyridin-3-yl)-3,8-diazabicyclo[3.2.1]octan-8-yl)propyl)-5-methylisoquinolin-1(2H)-one] | < 50 |

The next lines start with the values.

| inhibition at 0.001 µM [%] | SMILES |
| --- | --- |
| < 50 | Cc1cc(F)cc2c(=O)[nH]c(CCC(=O)N3CCN(C(=O)C4CCCC4)CC3)cc12 [Example 177, 3-(3-(4-(cyclopentanecarbonyl)piperazin-1-yl)-3-oxopropyl)-7-fluoro-5-methylisoquinolin-1(2H)-one] |
| < 50 | O=C(CCc1cc2ccc(F)cc2c(=O)[nH]1)N1CCN(C(=O)C2CCC2)CC1 [Example 180, 3-(3-(4-(cyclobutanecarbonyl)piperazin-1-yl)-3-oxopropyl)-7-fluoroisoquinolin-1(2H)-one] |
| < 50 | O=C(CCc1cc2ccc(F)cc2c(=O)[nH]1)N1CCN(C(=O)C2CC2)CC1 [Example 184, 3-(3-(4-(cyclopropanecarbonyl)piperazin-1-yl)-3-oxopropyl)-7-fluoroisoquinolin-1(2H)-one] |
| < 50 | CC(C)C(=O)N1CCN(C(=O)CCc2cc3cccc(F)c3c(=O)[nH]2)CC1 [Example 186, 8-fluoro-3-(3-(4-isobutyrylpiperazin-1-yl)-3-oxopropyl)isoquinolin-1(2H)-one] |
| < 50 | Cc1ccc(F)c2c(=O)[nH]c(CCC(=O)N3CCN(C(=O)C(C)C)CC3)cc12 [Example 187, 8-fluoro-3-(3-(4-isobutyrylpiperazin-1-yl)-3-oxopropyl)-5-methylisoquinolin-1(2H)-one] |
| < 50 | O=C(CCc1cc2cccc(F)c2c(=O)[nH]1)N1CCN(C(=O)C2CCCO2)CC1 (centres unmarked) [Example 190, 8-fluoro-3-(3-oxo-3-(4-(tetrahydrofuran-2-carbonyl)piperazin-1-yl)propyl)isoquinolin-1(2H)-one] |
| < 50 | Cc1ccc(F)c2c(=O)[nH]c(CCC(=O)N3CCN(C(=O)C4CCCO4)CC3)cc12 (centres unmarked) [Example 191, 8-fluoro-5-methyl-3-(3-oxo-3-(4-(tetrahydrofuran-2-carbonyl)piperazin-1-yl)propyl)isoquinolin-1(2H)-one] |
| < 50 | O=C(CCc1cc2ccc(F)cc2c(=O)[nH]1)N1CCN(C(=O)C2CCCO2)CC1 (centres unmarked) [Example 192, 7-fluoro-3-(3-oxo-3-(4-(tetrahydrofuran-2-carbonyl)piperazin-1-yl)propyl)isoquinolin-1(2H)-one] |
| < 50 | Cc1cc(F)cc2c(=O)[nH]c(CCC(=O)N3CCN(C(=O)C4CCCO4)CC3)cc12 (centres unmarked) [Example 193, 7-fluoro-5-methyl-3-(3-oxo-3-(4-(tetrahydrofuran-2-carbonyl)piperazin-1-yl)propyl)isoquinolin-1(2H)-one] |
| < 50 | Cc1ccc(F)c2c(=O)[nH]c(CCC(=O)N3CCN(C(=O)[C@H](C)N)CC3)cc12 [Example 194, 3-(3-(4-(L-alanyl)piperazin-1-yl)-3-oxopropyl)-8-fluoro-5-methylisoquinolin-1(2H)-one hydrochloride] |
| < 50 | Cc1ccc(F)c2c(=O)[nH]c(CCC(=O)N3CCN(C(=O)[C@@H](N)Cc4ccccc4)CC3)cc12 [Example 195, 3-(3-(4-(L-phenylalanyl)piperazin-1-yl)-3-oxopropyl)-8-fluoro-5-methylisoquinolin-1(2H)-one hydrochloride] |
| < 50 | Cc1ccc(F)c2c(=O)[nH]c(CCC(=O)N3CCN(C(=O)C4CCCN4)CC3)cc12 (centres unmarked) [Example 196, hydrochloride] |

Same assay, conditions: PARP-1 enzyme activity

| SMILES | IC50 [nM] |
| --- | --- |
| Cc1ccc(F)c2c(=O)[nH]c(CCC(=O)N3CCN(C(=O)C4CC4)CC3)cc12 [Example 183, 3-(3-(4-(cyclopropanecarbonyl)piperazin-1-yl)-3-oxopropyl)-8-fluoro-5-methylisoquinolin-1(2H)-one] | 14.7 |
| Cc1ccc(F)c2c(=O)[nH]c(CCCN3C4CCC3CN(c3ccc(C#N)nc3)C4)cc12 [Example 200, 5-(8-(3-(8-fluoro-5-methyl-1-oxo-1,2-dihydroisoquinolin-3-yl)propyl)-3,8-diazabicyclo[3.2.1]octan-3-yl)picolinonitrile] | 1.24 |
